Experimental data reported in PubChem BioAssay (NCI).
“And” between values parts separate entries of the source, which are not always exact repeats. Equal values may be shown once.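 Assay format: 96-well plates, 48-hour exposure. GI50 marks 50% less growth. Definition used: TGI = concentration required for complete inhibition of growth.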

Assays:
Assay in all cases: inhibition of tumour cell growth, NCI panel, 48 h
U251 CNS = tested on: U251 CNS
SF-295 CNS = tested on: SF-295 CNS
UACC-257 melanoma = tested on: UACC-257 melanoma
SK-MEL-2 melanoma = tested on: SK-MEL-2 melanoma
NCI-H460 lung = tested on: NCI-H460 lung
HL-60(TB) leukemia = tested on: HL-60(TB) leukemia
MDA-MB-231 breast = tested on: MDA-MB-231 breast
786-0 renal = tested on: 786-0 renal
SK-OV-3 ovarian = tested on: SK-OV-3 ovarian
NCI-H23 lung = tested on: NCI-H23 lung

SMILES	GI50 (U251 CNS)	TGI (U251 CNS)	GI50 (SF-295 CNS)	GI50 (UACC-257 melanoma)	TGI (UACC-257 melanoma)	GI50 (SK-MEL-2 melanoma)	TGI (SK-MEL-2 melanoma)	GI50 (NCI-H460 lung)	TGI (NCI-H460 lung)	GI50 (HL-60(TB) leukemia)	TGI (HL-60(TB) leukemia)	GI50 (MDA-MB-231 breast)	TGI (MDA-MB-231 breast)	GI50 (786-0 renal)	TGI (786-0 renal)	GI50 (SK-OV-3 ovarian)	TGI (SK-OV-3 ovarian)	GI50 (NCI-H23 lung)	TGI (NCI-H23 lung)	TGI (SF-295 CNS)
COc1ccc2c(c1)[nH]c(=O)c1c3cc(C)c(C)cc3cn21	< 0.01 µM	1.2 µM	< 0.01 µM	12.8 µM	26.4 µM	< 0.0208 µM	6.19 µM	< 0.018 µM	1.02 µM	< 0.01 µM	< 0.013 µM	0.0291 µM	1.53 µM	< 0.0233 µM	1.6 µM	< 0.0194 µM	4.59 µM	0.0305 µM	0.392 µM	–
COc1cc2c3c(n(C)c(=O)c2cc1OC)-c1cc2c(cc1/C3=C\CCCCCN)OCO2	1.56 µM	16.7 µM	0.887 µM	16.8 µM	45.9 µM	31 µM	> 100 µM	0.13 µM	21.7 µM	2.92 µM	21.9 µM	2.5 µM	12.9 µM	0.979 µM	> 50.9 µM	8.62 µM	44.7 µM	1.62 µM	13.3 µM	> 42.4 µM
COc1cc(-c2nn(-c3ccc(NC(=O)c4ccc(Cl)c(Cl)c4)cc3)cc2-c2ccncc2)ccc1Cl	5.7 µM	> 100 µM	1.94 µM	> 100 µM	> 100 µM	5.74 µM	> 100 µM	4.17 µM	> 100 µM	8.03 µM	> 100 µM	3.66 µM	> 100 µM	2.05 µM	4.59 µM	> 100 µM	> 100 µM	38.4 µM	> 100 µM	4.57 µM
CCN(CC)CCOc1nc2ccc(OC)cc2c2c1-c1ccc(OC)cc1C2=O	0.454 µM	1.72 µM	0.519 µM	1.4 µM	3.12 µM	2.24 µM	4.05 µM	0.371 µM	1.43 µM	1.06 µM	3.37 µM	1.54 µM	4.1 µM	1.39 µM	3.11 µM	2.88 µM	14.8 µM	1.25 µM	3.23 µM	1.74 µM
COc1nc(N(C)O)nc(N(C)O)n1	0.716 µM	> 100 µM	2.2 µM	3.52 µM	> 100 µM	6.1 µM	> 100 µM	0.454 µM	8.62 µM	1.68 µM	9.1 µM	3.54 µM	> 100 µM	3.74 µM	33.2 µM	1.75 µM	> 100 µM	2.14 µM	> 100 µM	9.69 µM
CN(C)c1cccc2c(S(=O)(=O)N[C@H]3CC[C@H]4[C@@H]5CCc6cc(O)ccc6[C@H]5CC[C@]34C)cccc12	2.94 µM	10.4 µM	1.02 µM	2.51 µM	11.5 µM	2.37 µM	5.48 µM	2 µM	4.52 µM	2.78 µM	8.23 µM	1.75 µM	4.41 µM	3.18 µM	9.78 µM	3.83 µM	74.3 µM	2.99 µM	22 µM	2.7 µM
CNc1ccc2nc3ccc(=[N+](C)C)cc-3sc2c1	0.412 µM and 0.267 µM	5.6 µM and 1.68 µM	1.35 µM and 0.411 µM	0.962 µM and 0.331 µM	4.52 µM and 1.91 µM	1.12 µM and 1.07 µM	3.81 µM and 5.25 µM	2.32 µM and 0.879 µM	18.5 µM and 11.5 µM	0.236 µM and 0.343 µM	1.41 µM and 3.39 µM	0.426 µM and 0.345 µM	5.59 µM and 3.63 µM	3.84 µM and 1.27 µM	17.6 µM and 16 µM	4.29 µM and 3.81 µM	18.7 µM and 19.1 µM	0.817 µM and 0.323 µM	7.91 µM and 2.75 µM	10.3 µM and 3.22 µM
COc1ccc(Cl)cc1Nc1nc(C(F)(F)F)ccc1C(=O)N/N=C/c1c(Cl)cccc1Cl	4.97 µM	> 100 µM	3.34 µM	> 100 µM	> 100 µM	5.62 µM	> 100 µM	4.52 µM	> 100 µM	4.87 µM	41.6 µM	14.5 µM	> 100 µM	8.49 µM	> 100 µM	7.67 µM	> 100 µM	38.5 µM	> 100 µM	72.6 µM
C=C1CC2(OC1=O)C(=O)N(CCCCCCCN1C(=O)C3(CC(=C)C(=O)O3)c3ccccc31)c1ccccc12 (centres undefined)	5.81 µM	12.4 µM	10.2 µM	2.14 µM	8.76 µM	7.51 µM	17.2 µM	2.9 µM	12.3 µM	0.992 µM	3.21 µM	1.18 µM	3.49 µM	1.49 µM	5.42 µM	9.97 µM	37.8 µM	3.71 µM	11.6 µM	25 µM
Cc1ccc(CNc2c3ccccc3nc3ccccc23)cc1	2.65 µM	10.4 µM	2.53 µM	2.17 µM	5.06 µM	2.06 µM	4.47 µM	2.02 µM	5.26 µM	2.2 µM	5.07 µM	1.8 µM	4.52 µM	1.95 µM	4.26 µM	2.59 µM	10.8 µM	1.59 µM	4.04 µM	8.87 µM
CNC(=O)c1cc(OC2CCC(NC(=O)Nc3ccc(Cl)c(C(F)(F)F)c3)CC2)ccn1 (centres undefined)	6.81 µM	23.4 µM	4.95 µM	5.68 µM	20.3 µM	15.8 µM	38.3 µM	6.92 µM	28.6 µM	11.7 µM	50.2 µM	3.23 µM	15.9 µM	8.34 µM	25 µM	18.8 µM	40.1 µM	4.47 µM	20.4 µM	26.6 µM
COc1ccc(N=C2CSc3nnc(-c4cc(F)c(Cl)cc4Cl)n3N2)cc1	0.497 µM	10.8 µM	0.347 µM	1.38 µM	4.16 µM	2.75 µM	13.4 µM	1.07 µM	12.3 µM	0.331 µM	0.636 µM	1.41 µM	12.8 µM	1.04 µM	4 µM	0.987 µM	5.39 µM	2.24 µM	15.9 µM	2.08 µM
O=[N+]([O-])C1C(c2ccccc2)C12c1ccccc1-c1ccccc12 (centres undefined)	1.03 µM	14 µM	0.598 µM	6.38 µM	51.2 µM	4.4 µM	31.4 µM	0.589 µM	10.7 µM	2.12 µM	> 100 µM	0.633 µM	13.5 µM	0.59 µM	14.2 µM	1.84 µM	> 41.1 µM	2.06 µM	> 47.2 µM	43.9 µM
Nc1nc(SCc2ccccn2)c2ncn(C3CCCC3)c2n1	–	> 100 µM	–	–	> 100 µM	–	> 100 µM	–	> 100 µM	–	> 100 µM	–	> 100 µM	–	> 100 µM	–	> 100 µM	–	> 100 µM	> 100 µM
COc1cc(O)c([C@@H]2C[C@H](CCc3ccc(O)cc3)O[C@H](c3ccc(O)cc3)C2)c(O)c1C(=O)/C=C/c1ccc(O)cc1	2.81 µM	9.22 µM	3.83 µM	3.82 µM	13.2 µM	2.38 µM	6.86 µM	2.71 µM	7.49 µM	2.13 µM	5.2 µM	2.5 µM	6.23 µM	2.28 µM	4.97 µM	2.74 µM	6.11 µM	2.57 µM	5.71 µM	17.9 µM
COc1cccc(C2CC(C)(N3CCCC3)Oc3cc4c(cc32)OCO4)c1O (centres undefined)	–	77.4 µM	–	–	> 100 µM	–	55.8 µM	–	> 82.1 µM	–	> 54.2 µM	–	80.5 µM	–	> 100 µM	–	> 100 µM	–	71 µM	59.6 µM
COc1ccc(-c2nn3ncccc3c2-c2ccnc(Nc3ccc(Cl)c(C(F)(F)F)c3)n2)cc1	12.4 µM	> 25 µM	9.96 µM	11.5 µM	> 25 µM	11.6 µM	> 25 µM	8.45 µM	> 25 µM	11.9 µM	> 25 µM	8.56 µM	> 25 µM	11 µM	> 25 µM	13.1 µM	> 25 µM	10.6 µM	> 25 µM	> 25 µM
COc1cc(C2CC(c3ccc(C)cc3)=NN2C=O)ccc1Oc1ccnc2cc(Cl)ccc12 (centres undefined)	6.5 µM	21.4 µM	4.41 µM	> 50 µM	> 50 µM	7.39 µM	18.3 µM	> 50 µM	> 50 µM	> 50 µM	> 50 µM	4.23 µM	43.8 µM	5.07 µM	19.6 µM	7.2 µM	> 50 µM	6.93 µM	> 50 µM	23.7 µM
N=C1C(c2nc(-c3ccc(Br)cc3)cs2)=C(O)CN1Cc1cccnc1	22.1 µM	> 100 µM	16.6 µM	27.8 µM	> 100 µM	11.2 µM	80.5 µM	12.3 µM	> 100 µM	3.42 µM	20.2 µM	15.9 µM	43.5 µM	15.3 µM	34.3 µM	25.3 µM	> 100 µM	22.5 µM	> 100 µM	81.3 µM
C=CCn1c2c(c3ccccc3c1=O)C(=O)c1ccccc1-2	–	> 100 µM	–	–	> 100 µM	–	> 100 µM	–	> 100 µM	–	> 100 µM	–	> 100 µM	–	> 100 µM	–	> 100 µM	–	> 100 µM	> 100 µM
